From patent US20240316052A1, “MITOCHONDRIAL SUPERCOMPLEX FORMATION PROMOTER, COMPOSITION FOR MAINTAINING OR IMPROVING MUSCULAR STRENGTH, THERAPEUTIC OR PREVENTATIVE PHARMACEUTICAL COMPOSITION FOR DISEASES WHICH DECREASE MITOCHONDRIAL FUNCTION OR MUSCULAR FUNCTION, AND SCREENING METHOD FOR SUBSTANCES WHICH CONTRIBUTE TO …” (TOKYO METROPOLITAN GERIATRIC HOSPITAL AND INSTITUTE OF …, priority 2021, published 2024)
“Also recorded” adds a separate entry of the source. Where two headings read alike, the source gives them in different places.

Experiments:
[1] = test system: mitochondrial respiratory chain supercomplex formation (NDUFB8-AcGFP / COX8A-DsRed monomer); test: FRET (cFRET/Donor) in C2C12 cells stably co-expressing NDUFB8-AcGFP and COX8A-DsRed monomer; assay type: cell-based, mouse
Text: In addition, the protein in which the subunit NDUFB8 of respiratory chain complex I was labeled with AcGFP, and the protein in which the subunit COX8A of respiratory chain complex IV labeled with DsRed monomer, were co-expressed, whereby the fluorescence of DsRed monomer was detected at the excitation wavelength of AcGFP, and the FRET efficiency can be calculated (FIG. 2B).
FRET signals between respiratory chain complex subunits in stably expressing cells were examined using C2C12 cells stably expressing both NDUFB8-AcGFP and COX8A-DsRed monomer and C2C12 cells stably expressing both UQCR11-AcGFP and ATP5F1c-DsRed monomer.
The sequences of siRNAs are as follows.
In the primary screening, the cFRET/Donor of living cells with 40 μM of each 1280 compound was measured using the C2C12 expressing cells stably co-expressing NDUFB8-AcGFP and COX8A-DsRed monomer established in this study (FIG. 5B). In the secondary screening, cFRET/Donor was measured by adding 40, 20, 10, 2.5, or 0.6 μM of each compound.
MNS was added to stably expressed C2C12 cells stepwise from low to high concentrations, and the cFRET/Donor was measured. […] In the following experiments, the respiratory chain supercomplex was examined in C2C12 cells under the condition of 1 μM addition.

[2] = test system: respiratory chain supercomplexes I+III2+IV, I+III2, III2+IV; test: BN-PAGE of mitochondrial fractions extracted from C2C12 cells; assay type: cell-based, mouse; settings: compound added, compared to DMSO
[3] = test system: C2C12 cells; test: Oxygen consumption, XFp Extracellular Flux Analyzer; assay type: cell-based, mouse; settings: 1 μM, compared to solvent-only control
Procedure: Oxygen consumption rate (OCR) was measured as follows. The C2C12 cells were seeded (5×10^3 cells/well) in […] (Agilent Tech, CA, USA) and incubated overnight before measuring OCR and ECAR. One hour before the measurement, the medium was replaced with XF base medium containing 1 mM sodium pyruvate, 2 mM […] and 25 mM glucose (Agilent Tech). Basal respiration, ATP production, and maximal respiration (spare respiratory capacity) of C2C12 cells were measured using XFp Extracellular Flux Analyzer (Agilent Tech) and Mito Stress Kit for XFp (Agilent Tech). The drugs were added in the following order: 1.0 μM oligomycin, 0.5 μM carbonyl cyanide-p-trifluoromethoxyphenylhydrazone, and 0.5 μM rotenone. The baseline (basal) OCR was measured three times before and after the addition of the drugs.

[4] = test system: DBA/2CrSc1 mice; test: Wire-hang test in mice; assay type: in vivo; settings: intraperitoneal, compared to DMSO-treated group
Procedure: (§1) Seven-week-old DBA/2CrSc1 mice were injected intraperitoneally with MNS, or DMSO as a control. […] In addition, the formation of respiratory chain supercomplexes by BN-PAGE were compared using mitochondrial fractions extracted from the extensor digitorum longus and soleus muscles of the mice in each group.

[5] = test system: DBA/2CrSc1 mice; test: Treadmill test in mice; assay type: in vivo; settings: intraperitoneal, compared to DMSO-treated group
Procedure: as §1

[6] = Toxicity and body weight in mice, intraperitoneal injection; settings: seven-week-old DBA/2CrSc1 mice, vs DMSO
Procedure: as §1

[7] = test system: mitochondrial function; settings: already reported; cited from earlier work
[8] = test system: Syk; test: Syk mRNA and protein expression after siRNA; assay type: cell-based, mouse; settings: C2C12 cells
Text: Both mRNA and protein expression levels of Syk in C2C12 cells were suppressed by the above #1 and #2 siRNAs. The above siSyk was transfected into cells stably expressing NDUFB8-AcGFP and COX8A-DsRed monomer, and FRET signals were examined. FRET efficiency was increased in siSyk treatment, compared to siControl treatment (FIG. 7A). The formation of respiratory chain supercomplexes was compared using the same siRNA and mitochondrial fractions extracted from C2C12 cells in which Syk expression was suppressed, according to BN-PAGE. […] Oxygen consumption of C2C12 cells in siControl or siSyk treatment was measured using XFp Extracellular Flux Analyzer.

[9] = test system: respiratory chain supercomplexes I+III2+IVn (n=1-2), I+III2, III2+IV; test: BN-PAGE of mitochondrial fractions from extensor digitorum longus and soleus muscles of mice; assay type: in vivo; settings: mitochondria of both extensor digitorum longus and soleus muscles, compared to DMSO
Procedure: as §1

[10] = primary 40 μM; secondary 40, 20, 10, 2.5, 0.6 μM; then BN-PAGE
[11] = compound added, compared to DMSO

Molecule: COc1ccc(-c2cc3nccn3c(Nc3ncccc3C(N)=O)n2)cc1OC [BAY61-3606, 2-[[7-(3,4-dimethoxyphenyl)imidazo[1,2-c]pyrimidin-5-yl]amino]pyridine-3-carboxamide]
- EC50 ([1]; stably expressed C2C12 cells, added stepwise from low to high concentrations; read-out: 50% effective concentration (EC50) from cFRET/Donor dose-response curve): 1000 nM
- formation of respiratory chain supercomplexes I+III2+IV, I+III2, III2+IV (BN-PAGE) [2]: increased
- ATP production [3]: significant increases
- basal respiration [3]: significant increases
- maximal respiration (spare respiratory capacity) [3]: significant increases
- time holding the wire [4]: significantly prolonged
- running distance [5]: significantly longer
- running time [5]: significantly longer
- change in body weight [6]: no change
- toxicity [6]: no significant toxicity

Molecule: CC1(C)CCC2=C(O1)c1ccccc1C(=O)C2=O [Beta-lapachone]
- outcome of three-step screening (FRET and BN-PAGE) of LOPAC 1280 for compounds that promote respiratory chain supercomplex formation [1, 10]: screened
- mitochondrial function [7]: improve mitochondrial function

Molecule: siSyk #1: siRNA against Syk, sense strand SEQ ID NO:1 and antisense strand SEQ ID NO:2 (sense AAUGAAUUCAACAUACAGGGA; antisense CCUGUAUGUUGAAUUCAUUGA; listed as RNA, chemistry not given here)
- mRNA expression level of Syk [8]: suppressed
- protein expression level of Syk [8]: suppressed

Molecule: siSyk #2: siRNA against Syk, sense strand SEQ ID NO:3 and antisense strand SEQ ID NO:4 (sense UUAAUCUUGACAGUAAGACAC; antisense GUCUUACUGUCAAGAUUAAUU; listed as RNA, chemistry not given here)
- mRNA expression level of Syk [8]: suppressed
- protein expression level of Syk [8]: suppressed

Molecule: O=[N+]([O-])/C=C/c1ccc2c(c1)OCO2 [MNS, 3,4-methylenedioxy-β-nitrostyrene]
- FRET efficiency between subunit fluorescent fusion proteins of respiratory chain complexes I and IV [1, 11]: increase
- corrected value of cFRET/Donor [1, 11]: significantly increased; also recorded: improvement
- outcome of three-step screening (FRET and BN-PAGE) of LOPAC 1280 for compounds that promote respiratory chain supercomplex formation [1, 10]: screened
- EC50 ([1]; read-out: 50% effective concentration (EC50) from cFRET/Donor dose-response curve; stably expressed C2C12 cells, added stepwise from low to high concentrations): 574 nM
- formation of respiratory chain supercomplexes I+III2+IV, I+III2, III2+IV (BN-PAGE) [2]: increased
- basal respiration [3]: significant increases
- maximal respiration (spare respiratory capacity) [3]: significant increases
- time holding the wire [4]: significantly prolonged
- running distance [5]: significantly longer
- running time [5]: significantly longer
- formation of respiratory chain supercomplexes I+III2+IVn (n=1-2), I+III2, III2+IV (BN-PAGE) [9]: increased
- change in body weight [6]: no change
- toxicity [6]: no significant toxicity
